These are literature values, as cited in patent publication US12247028B2, “Azabicyclo and diazepine derivatives” (Alcon Inc., priority 2017, dated 2025).

SMILES strings stand for the structures.

For this series the following is noted: topical 1% drop; cited from earlier work.

As for `CN1[C@@H]2CC[C@H]1C[C@@H](OC(=O)C(CO)c1ccccc1)C2` (some centres unmarked) [atropine], the “efficacy in the treatment of myopia” value is listed as “effective”; the side effects result is “numerous side effects were reported, including mydriasis (dilation of the pupil) and blurring of near vision due to cycloplegia”.
